From the NIST ThermoML archive (doi:10.1021/je020110g)

What was measured:
[1] = Liquid
[2] = excess molar enthalpy (molar enthalpy of mixing); xn = mol fraction of the nth substance listed; settings: 298.15 K, 101.3 kPa, Liquid, Flow calorimetry

CCCCBr [1-bromobutane]
[1]
Settings	vapor or sublimation pressure [kPa]
278.15 K	1.86
283.15 K	2.48
288.15 K	3.265
293.15 K	4.261
298.15 K	5.506
303.15 K	7.039
308.15 K	8.899
313.15 K	11.15
318.15 K	13.87
323.15 K	17.09

CCCCBr [1-bromobutane] + CC(C)CO
[2]
Settings	excess molar enthalpy [kJ/mol]
x2 = 0.0421	0.53
x2 = 0.0942	0.851
x2 = 0.1932	1.12
x2 = 0.2938	1.25
x2 = 0.3468	1.27
x2 = 0.3957	1.27
x2 = 0.4476	1.25
x2 = 0.499	1.21
x2 = 0.6	1.08
x2 = 0.7021	0.891
x2 = 0.8052	0.636
x2 = 0.906	0.33
x2 = 0.9587	0.159

CC(C)CO [2-methyl-1-propanol]
[1]
Settings	vapor or sublimation pressure [kPa]
278.15 K	0.335
283.15 K	0.505
288.15 K	0.739
293.15 K	1.057
298.15 K	1.501
303.15 K	2.133
308.15 K	2.956
313.15 K	4.026
318.15 K	5.444
323.15 K	7.237

CCC(C)O (stereo unspecified) [butan-2-ol]
[1]
Settings	vapor or sublimation pressure [kPa]
278.15 K	0.519
283.15 K	0.78
288.15 K	1.137
293.15 K	1.648
298.15 K	2.324
303.15 K	3.256
308.15 K	4.462
313.15 K	6.048
318.15 K	8.105
323.15 K	10.71

CCCCBr [1-bromobutane] + CCC(C)O
[2]
Settings	excess molar enthalpy [kJ/mol]
x2 = 0.0424	0.52
x2 = 0.0948	0.924
x2 = 0.1942	1.28
x2 = 0.2951	1.47
x2 = 0.3482	1.52
x2 = 0.3973	1.54
x2 = 0.4492	1.53
x2 = 0.5006	1.51
x2 = 0.6015	1.4
x2 = 0.7035	1.19
x2 = 0.8062	0.887
x2 = 0.9066	0.489
x2 = 0.959	0.246
